Data on two compounds can be found in US20080064027A1, “TEL/Etv6-mediated inhibition of cell proliferation” (priority 2002, published 2008).

Like-named read-outs stand apart in the source and are kept apart here.

The target in one experiment is T1, Stat3-ER (UniProt P19785+P40763, G525R).
T1 construct: expressed in transfected cells
Description: Stat3 oligonucleotide DNA binding assay on nuclear extracts. It is filed as cell-based. The method, then:
DNA binding assays were carried out using cells stimulated with 4HT (1 microM) for 0, 0.3, 1, 2, 4 and 24 hours. […] Samples were centrifuged and the pellet was washed two more times with binding buffer. Proteins were eluted from beads by boiling in 25 microliters of 2× loading buffer (1% DTT, 4% SDS, 20% Glycerol, 0.02% Bromophenol Blue, 0.25 M TrisHCl 1M 6.8 pH) and SDS-PAGE was performed.
DNA binding of Stat3-ER and endogenous Stat3 was monitored by performing Western analysis on the oligonucleotide-bound proteins.

The subject of a further experiment is A375-Stat3-ER cells. To be noted: for reduction of A375-Stat3ER cell number: 3 days.
Where [1] appears, read: 24 h, 4HT 1 microM, OSM 100 ng/ml, control 1.48.
[2] abbreviates: 48 h, 4HT 1 microM, OSM 100 ng/ml, control 4.33.
[3] abbreviates: 72 h, 4HT 1 microM, OSM 100 ng/ml, control 7.83.

T1 sequence (P40763+P19785 fused P19785:G525R): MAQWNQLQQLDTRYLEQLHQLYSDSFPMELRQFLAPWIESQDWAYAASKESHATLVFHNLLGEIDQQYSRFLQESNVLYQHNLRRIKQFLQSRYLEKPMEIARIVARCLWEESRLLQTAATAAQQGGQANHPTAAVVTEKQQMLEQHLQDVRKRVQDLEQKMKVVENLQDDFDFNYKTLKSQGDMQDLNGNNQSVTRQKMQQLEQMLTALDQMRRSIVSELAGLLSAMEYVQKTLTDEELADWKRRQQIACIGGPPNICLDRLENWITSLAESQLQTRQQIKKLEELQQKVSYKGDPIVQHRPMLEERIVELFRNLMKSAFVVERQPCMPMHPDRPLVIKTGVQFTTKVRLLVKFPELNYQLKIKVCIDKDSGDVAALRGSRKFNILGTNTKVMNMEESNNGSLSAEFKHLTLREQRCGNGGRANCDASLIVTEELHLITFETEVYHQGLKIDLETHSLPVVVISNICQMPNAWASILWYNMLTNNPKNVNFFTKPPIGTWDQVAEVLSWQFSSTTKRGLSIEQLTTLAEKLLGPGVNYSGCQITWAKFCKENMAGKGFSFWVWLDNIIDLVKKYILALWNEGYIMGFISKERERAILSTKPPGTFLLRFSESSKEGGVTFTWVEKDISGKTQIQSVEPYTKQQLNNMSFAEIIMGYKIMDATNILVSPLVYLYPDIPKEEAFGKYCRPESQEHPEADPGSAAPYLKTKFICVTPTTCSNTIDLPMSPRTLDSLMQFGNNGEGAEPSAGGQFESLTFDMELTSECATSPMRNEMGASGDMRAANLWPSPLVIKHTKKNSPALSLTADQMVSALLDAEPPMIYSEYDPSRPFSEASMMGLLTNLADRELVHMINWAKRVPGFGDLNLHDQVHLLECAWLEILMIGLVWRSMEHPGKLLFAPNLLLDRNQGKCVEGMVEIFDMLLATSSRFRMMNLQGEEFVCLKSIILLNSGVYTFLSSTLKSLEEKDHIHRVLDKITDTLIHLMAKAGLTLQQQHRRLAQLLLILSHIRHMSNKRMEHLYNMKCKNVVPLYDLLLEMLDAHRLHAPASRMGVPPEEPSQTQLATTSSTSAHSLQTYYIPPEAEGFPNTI
Description for A375-Stat3-ER cells: In order to evaluate the role of Stat3 in A375 cell proliferation, A375-Stat3-ER cells were grown in the presence of OSM or 4HT and cell number determined over 3 days.

As to `CCC(=C(c1ccc(O)cc1)c1ccc(OCCN(C)C)cc1)c1ccccc1` [4HT, 4-hydroxytamoxifen, reference compound], the “earliest time at which Stat3ER-DNA binding was detected after stimulation” value on Stat3-ER (4HT 1 microM) is given as 20 min. For the same compound, at Stat3-ER (4HT 1 microM), the “time of maximum measured Stat3ER-DNA binding” value turned out to be 24 h. Also, the “Stat3-ER nuclear translocation and DNA binding to Stat3-specific oligonucleotide probe” value on Stat3-ER (4HT 1 microM, Stat3-ER-expressing A375 cells) was “induced nuclear translocation and DNA-binding”. Besides, the “Number of Cells” value is on record as 0.8 ×10^5 with A375-Stat3-ER cells (0 h (start of treatment)), 1.49 ×10^5 with A375-Stat3-ER cells (setting [1]), 3.60 ×10^5 in the experiment on A375-Stat3-ER cells (setting [2]) and 4.44 ×10^5 in the experiment on A375-Stat3-ER cells (setting [3]). Further, in the experiment with A375-Stat3-ER cells (4HT 1 microM, OSM 100 ng/ml), the “reduction of A375-Stat3ER cell number” value is reported as “about 40%”.
Consider oncostatin M [OSM], for which the “endogenous Stat3 DNA binding after OSM addition” value with Stat3-ER (cells pretreated with 4HT for 24 hrs) was “could be detected 15 min after addition of OSM and decreased after 1 hr of treatment”. The “Stat3-ER DNA binding in the presence of OSM” value with Stat3-ER (cells pretreated with 4HT for 24 hrs, remained bound for the entire course) is recorded as “enhanced”. Also, the “Number of Cells” value was 0.8 ×10^5 in the experiment with A375-Stat3-ER cells (0 h (start of treatment)), 1.15 ×10^5 in the experiment with A375-Stat3-ER cells (setting [1]), 2.58 ×10^5 with A375-Stat3-ER cells (setting [2]) and 4.35 ×10^5 in the experiment on A375-Stat3-ER cells (setting [3]). In the experiment with A375-Stat3-ER cells (4HT 1 microM, OSM 100 ng/ml), the “reduction of A375-Stat3ER cell number” value is listed as “about 40%”.
